One assay concerns Pythium ultimum. Kind of assay: Pythium ultimum / liquid culture (seedling damping off). The format is cell-based. To be noted: Globisporangium ultimum; 200 ppm; potato dextrose broth, 24° C., 2-3 days after application; read-out: disease control (inhibition of growth determined photometrically).
In a further assay the test system is Plasmopara viticola. The experiment in a line: whole plant or invertebrate. The class given is in vivo. To be noted: foliar, read-out: disease control.
Assay [1] deals with Monographella nivalis (Microdochium nivale). Kind of assay: Monographella nivalis (Microdochium nivale) / liquid culture (foot rot cereals). The format is cell-based. The conditions noted are these: PDB potato dextrose broth, 24° C., 4-5 days after application, read-out: disease control (inhibition of growth determined photometrically).
A further assay relates to Gaeumannomyces graminis. Kind of assay: Gaeumannomyces graminis / liquid culture (take-all of cereals). The class given is cell-based. The conditions noted are these: PDB potato dextrose broth, 24° C., 4-5 days after application, read-out: disease control (inhibition of growth determined photometrically). As for the experimental part: 14. Gaeumannomyces graminis/Liquid Culture (Take-all of Cereals): Mycelial fragments of the fungus from cryogenic storage were directly mixed into nutrient broth (PDB potato dextrose broth). After placing a DMSO solution of test compound into a 96-well microtiter plate at an application rate of 200 ppm, the nutrient broth […], containing the fungal spores is added. The test plates were incubated at 24° C. and the inhibition of growth was determined photometrically 4-5 days after application.

As usually defined, the inhibition is how much of the control response was suppressed. For the compound `O=C(Nc1ccc(Oc2ccccc2)nc1)c1ccc2c(c1)B(O)OC2` [Compound 306], in the assay with Pythium ultimum, the inhibition at 200 ppm was at least 80%. In addition, the pest or weed control at 200 ppm in the assay with Plasmopara viticola was at least 80%.

For `O=C(NCc1ccccc1F)c1cc2c(cc1Cl)COB2O` [Compound 73], the inhibition at 200 ppm with Pythium ultimum is at least 80%. Moreover, the pest or weed control at 200 ppm with Plasmopara viticola is at least 80%.

On to `N#CCOC(=O)c1cc2c(cc1Cl)COB2O` [Compound 213], for which the inhibition at 200 ppm in the assay on Pythium ultimum is at least 80%. The pest or weed control at 200 ppm in the assay with Plasmopara viticola was at least 80%.

For `O=C(Nc1ccc(S(=O)(=O)Nc2ccccn2)cc1)c1cc2c(cc1Cl)COB2O` [Compound 143], in the assay with Pythium ultimum, the inhibition at 200 ppm is at least 80%. Besides, in the assay on Plasmopara viticola, the pest or weed control at 200 ppm was at least 80%.

Regarding `O=C(NCc1ccccc1OC(F)(F)F)c1ccc2c(c1)B(O)OC2` [Compound 273], the inhibition at 200 ppm in the assay on Pythium ultimum is at least 80%. In the assay with Plasmopara viticola, the pest or weed control at 200 ppm is at least 80%.

In the case of `O=C(NCc1ccccc1F)c1ccc2c(c1)B(O)OC2` [Compound 262], the inhibition at 200 ppm in the assay with Pythium ultimum was at least 80%. For the same compound, the pest or weed control at 200 ppm with Plasmopara viticola was at least 80%.

As for `O=C(OCCc1ccc(Cl)cc1Cl)c1cc2c(cc1Cl)COB2O` [Compound 190], the inhibition at 200 ppm (in assay [1]; with Gaeumannomyces graminis) was at least 80% throughout.

On to `Cc1nnc(NC(=O)c2cc3c(cc2F)COB3O)s1` [Compound 184], for which the inhibition at 200 ppm in the assay on Pythium ultimum is at least 80%. For the same compound, in the assay with Plasmopara viticola, the pest or weed control at 200 ppm is at least 80%.

Turning to `Cc1cc(=O)oc2cc(NC(=O)c3cc4c(cc3Cl)COB4O)ccc12` [Compound 139], the inhibition at 200 ppm with Pythium ultimum and in the assay on Gaeumannomyces graminis was at least 80% each time.

In the case of `C=CC(=O)OCC(C)OC(=O)c1cc2c(cc1F)COB2O` (centres unmarked) [Compound 372], the inhibition at 200 ppm (with Pythium ultimum; in assay [1]) was at least 80% each time.

On to `O=C(OCc1ccc(C(F)(F)F)cc1Cl)c1cc2c(cc1Cl)COB2O` [Compound 200], for which the inhibition at 200 ppm (in assay [1]; in the assay on Gaeumannomyces graminis) was at least 80% each time.

As to `O=C(NCCc1c[nH]c2ccccc12)c1cc2c(cc1Cl)COB2O` [Compound 97], the inhibition at 200 ppm in the assay with Pythium ultimum and with Gaeumannomyces graminis was at least 80% throughout.

As for `O=C(Nc1ccc(-n2cccc2)cc1)c1cc2c(cc1Cl)COB2O` [Compound 125], the inhibition at 200 ppm in the assay on Pythium ultimum and in the assay with Gaeumannomyces graminis was at least 80% in each case.

For the compound `O=C(Nc1cccc(F)c1)c1cc2c(cc1F)COB2O` [Compound 157], the inhibition at 200 ppm in the assay on Pythium ultimum and in the assay on Gaeumannomyces graminis was at least 80% throughout.

For the compound `O=C(NCc1cccnc1)c1ccc2c(c1)B(O)OC2` [Compound 259], the inhibition at 200 ppm in the assay on Pythium ultimum was at least 80%.

With `O=C(NCC1(O)CCCCC1)c1cc2c(cc1F)COB2O` [Compound 74], in the assay on Pythium ultimum, the inhibition at 200 ppm is at least 80%.

For the compound `O=C(NCC1(O)CCCCC1)c1ccc2c(c1)B(O)OC2` [Compound 247], the inhibition at 200 ppm in the assay on Pythium ultimum was at least 80%.

Turning to `CC(NC(=O)c1ccc2c(c1)B(O)OC2)c1ccccc1` (centres unmarked) [Compound 263], the inhibition at 200 ppm with Pythium ultimum was at least 80%.

On to `O=C(NCc1ccccc1C(F)(F)F)c1cc2c(cc1Cl)COB2O` [Compound 99], for which the inhibition at 200 ppm (in the assay on Pythium ultimum; in assay [1]) was at least 80% each time.

As for `O=C(Nc1cc(C(F)(F)F)ccc1N1CCOCC1)c1ccc2c(c1)B(O)OC2` [Compound 291], in the assay with Gaeumannomyces graminis, the inhibition at 200 ppm is at least 80%.

On to `Cc1cc(NC(=O)c2cc3c(cc2F)COB3O)n(C)n1` [Compound 175], for which, in the assay on Pythium ultimum, the inhibition at 200 ppm was at least 80%.

Consider `O=C(NCCC1OCCO1)c1cc2c(cc1F)COB2O` [Compound 92], for which, in the assay with Pythium ultimum, the inhibition at 200 ppm was at least 80%.

Regarding `CC(CN1CCOCC1)OC(=O)c1ccc2c(c1)B(O)OC2` (centres unmarked) [Compound 322], the inhibition at 200 ppm in the assay on Pythium ultimum is at least 80%.

For the compound `CC(CN1CCOCC1)OC(=O)c1cc2c(cc1F)COB2O` (centres unmarked) [Compound 383], the inhibition at 200 ppm in the assay on Pythium ultimum was at least 80%.

Regarding `O=C(Nc1ccc(-n2cccc2)cc1)c1cc2c(cc1F)COB2O` [Compound 159], in the assay with Pythium ultimum, the inhibition at 200 ppm is at least 80%.

On to `O=C(NCCc1cccs1)c1cc2c(cc1F)COB2O` [Compound 115], for which the inhibition at 200 ppm with Pythium ultimum is at least 80%.

(Values after patent publication US20170000133A1, “BENZOXABOROLE FUNGICIDES” (SYNGENTA PARTICIPATIONS AG, priority 2013, published 2017).)
